# Data reported in US11046712B2, “Glycosidase inhibitors” (Asceneuron SA, priority 2014, dated 2021).
# Molecular target: His-Tagged hOGA (human O-GlcNAcase) (Homo sapiens (Human), UniProt O60502)
# Test: Human O-GlcNAcase enzyme inhibition assay (Example B01)
# Assay type: biochemical
# Conditions: not given
# Sequence of His-Tagged hOGA (human O-GlcNAcase) (O60502 whole entry): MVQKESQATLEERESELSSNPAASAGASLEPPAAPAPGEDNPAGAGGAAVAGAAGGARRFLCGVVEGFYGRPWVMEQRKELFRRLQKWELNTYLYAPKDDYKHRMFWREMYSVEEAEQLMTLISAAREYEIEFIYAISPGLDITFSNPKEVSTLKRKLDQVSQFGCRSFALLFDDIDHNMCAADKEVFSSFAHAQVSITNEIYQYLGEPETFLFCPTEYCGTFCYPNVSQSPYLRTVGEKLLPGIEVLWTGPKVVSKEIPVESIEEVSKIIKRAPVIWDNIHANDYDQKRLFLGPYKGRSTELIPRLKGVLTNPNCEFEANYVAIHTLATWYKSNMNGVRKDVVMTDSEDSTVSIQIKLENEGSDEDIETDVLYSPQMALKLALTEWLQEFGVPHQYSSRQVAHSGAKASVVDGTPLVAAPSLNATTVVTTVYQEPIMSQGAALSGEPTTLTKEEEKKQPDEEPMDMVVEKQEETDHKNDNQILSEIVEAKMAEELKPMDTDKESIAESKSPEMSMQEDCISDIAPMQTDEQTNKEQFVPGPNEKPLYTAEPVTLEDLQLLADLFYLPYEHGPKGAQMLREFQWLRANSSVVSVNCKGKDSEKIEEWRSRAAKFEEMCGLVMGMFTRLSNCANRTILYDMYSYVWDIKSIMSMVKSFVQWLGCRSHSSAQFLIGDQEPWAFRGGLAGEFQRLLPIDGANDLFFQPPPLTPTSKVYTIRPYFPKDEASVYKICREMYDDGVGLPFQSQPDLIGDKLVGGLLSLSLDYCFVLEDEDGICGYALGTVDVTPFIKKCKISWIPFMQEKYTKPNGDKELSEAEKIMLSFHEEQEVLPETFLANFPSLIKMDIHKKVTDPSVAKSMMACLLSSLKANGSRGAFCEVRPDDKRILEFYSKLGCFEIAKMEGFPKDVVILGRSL
row,Compound,"OGA inhibitor activity, in words"
1,"C[C@@H](c1ccc2c(c1)OCO2)N1CCN(c2nc3c(s2)CNCC3)CC1 [Example 182, (S)-2-(4-(1-(benzofdlM,31dioxol-5-yl)ethyl)piperazin-1-yl)-4,5,6,7-tetrahydrothiazoloi5,4-c1pyridine]",very potent OGA inhibitors
2,"Cc1ncc(N2CCN(C(C)c3ccc4c(c3)OCO4)CC2)s1 (racemic) [Example 37, 5-(4-(1-(Benzordiri,31dioxol-5-yl)ethyl)piperazin-1-yl)-2-methylthiazole]",very potent OGA inhibitors
3,"CC(c1ccc2c(c1)OCO2)N1CCN(c2ncc(C(N)=O)s2)CC1 (racemic) [Example 48, 2-(4-(1-(Benzord1(1,3)dioxol-5-yl)ethyl)piperazin-1-yl)thiazole-5-carboxamide]",very potent OGA inhibitors
4,"C[C@@H](c1ccc2c(c1)OCCO2)N1CCN(c2ncc(C(=O)N3CCN(C)CC3)s2)CC1 (single isomer, unassigned) [Example 75]",very potent OGA inhibitors
5,"CC(=O)Nc1cnc(N2CCN(C(C)c3ccc4c(c3)OCO4)CC2)nc1 (racemic) [Example 72, N-(2-(4-(1-(benzordlH,31dioxol-5-yl)ethyl)piperazin-1-yl)pyrimidin-5-yl)acetamide]",very potent OGA inhibitors
6,"C[C@@H](c1ccc2c(c1)OCCO2)N1CCN(c2ncccn2)CC1 (single isomer, unassigned) [Example 34, (R)-2-(4-(1-(2,3-Dihydrobenzorbiri,41dioxin-6-yl)ethyl)piperazin-1-yl)pyrimidine or (S)-2-(4-(1-(2,3-Dihydrobenzorbiri^1dioxin-6-yl)ethyl)piperazin-1-yl)pyrimidine]",very potent OGA inhibitors
7,"CNC(=O)c1csc(N2CCN([C@@H](C)c3ccc4c(c3)OCO4)CC2)n1 (single isomer, unassigned) [Example 56, (/?)-2-(4-(1-(Benzordiri,31dioxol-5-yl)ethyl)piperazin-1-yl)-N-methylthiazole^4-carboxamide or ^S)-2-(4-(1-(benzordiri,31dioxol-5-yl)ethyl)piperazin-1-yl)-N-methylthiazole^4-carboxamide]",very potent OGA inhibitors

# Second part, the molecule after the results:
row,"OGA inhibitor activity, in words",Compound
1,very potent OGA inhibitors,"C[C@@H](c1ccc2c(c1)OCO2)N1CCN(c2ncc(C(C)(C)O)cn2)CC1 [Example 176, (S)-2-(2-(4-(1-(benzordiri,31dioxol-5-yl)ethyl)piperazin-1-yl)pyrimidin-5-yl)propan-2-ol]"
2,very potent OGA inhibitors,"C[C@@H](c1ccc2c(c1)OCO2)N1CCN(c2ncc(F)cn2)CC1 [Example 173, (S)-2-(4-(1-(benzofdin,31dioxol-5-yl)ethyl)piperazin-1-yl)-5-fluoropyrimidine]"
3,very potent OGA inhibitors,"C[C@@H](c1ccc2c(c1)OCO2)N1CCN(c2ncc(C3(O)CCCC3)cn2)CC1 [Example 181, (S)-1-(2-(4-(1-(benzofdlH,31dioxol-5-yl)ethyl)piperazin-1-yl)pyrimidin-5-yl)cyclopentan-1-ol]"
4,very potent OGA inhibitors,CC(=O)Nc1cnc(N2CCN(C(C)c3ccc4c(c3)OCC4)CC2)nc1 (racemic) [Example 129]
5,very potent OGA inhibitors,"C[C@@H](c1ccc2c(c1)OCO2)N1CCN(c2nnc(N)s2)CC1 [Example 132, (S)-5-(4-(1-(benzordiri,31dioxol-5-yl)ethyl)piperazin-1-yl)-1,3,4-thiadiazol-2-amine]"
6,very potent OGA inhibitors,"C[C@@H](c1ccc2c(c1)OCO2)N1CCN(c2ncc(C3(O)CCCCC3)cn2)CC1 [Example 180, (S)-1-(2-(4-(1-(benzo[dl][1,31dioxol-5-yl)ethyl)piperazin-1-yl)pyrimidin-5-yl)cyclohexan-1-ol]"
7,very potent OGA inhibitors,CC(=O)Nc1nnc(N2CCN(C(C)c3ccc4scnc4c3)CC2)s1 (racemic) [Example 114]
8,very potent OGA inhibitors,"CC(=O)Nc1cnc(N2CCN(C(C)c3ccc4scnc4c3)CC2)nc1 (racemic) [Example 116, N-(2-(4-(1-(benzord1thiazol-5-yl)ethyl)piperazin-1-yl)pyrimidin-5-yl)acetamide]"
9,very potent OGA inhibitors,"CNC(=O)c1cnc(N2CCN([C@@H](C)c3ccc4c(c3)OCO4)CC2)nc1 [Example 134, (S) 2-(4-(1-(benzordiri,31dioxol-5-yl)ethyl)piperazin-1-yl)-N-methylpyrimidine-5-carboxamide]"
10,very potent OGA inhibitors,CC(=O)Nc1nnc(N2CCN(C(C)c3ccc4c(c3)OCC4)CC2)s1 (racemic) [Example 128]

# Same assay, conditions: OGA IC50 (M), OGA enzyme inhibition assay; activity range classes
row,Compound,IC50
1,COc1cc(C(C)N2CCN(c3nnc(NC(C)=O)s3)CC2)ccc1Cl (racemic) [Example 88],1e-06 to 1e-05 M
2,"C[C@@H](c1ccc2c(c1)OCCO2)N1CCN(c2ncc(C(=O)N(C)C)s2)CC1 (single isomer, unassigned) [Example 63]",1e-06 to 1e-05 M
3,"CNC(=O)c1cnc(N2CCN([C@@H](C)c3ccc4c(c3)OCO4)CC2)s1 (single isomer, unassigned) [Example 65]",1e-06 to 1e-05 M
4,"CC(=O)Nc1cnc(N2CCN(C(C)c3ccc4cccnc4c3)CC2)nc1 (racemic) [Example 120, N-(2-(4-(1-(quinolin-7-yl)ethyl)piperazin-1-yl)pyrimidin-5-yl)acetamide]",2e-07 to 1e-06 M
5,"C[C@@H](c1ccc2c(c1)OCCO2)N1CCN(c2ncc(C(=O)N3CCN(C)CC3)s2)CC1 (single isomer, unassigned) [Example 75]",< 5e-08 M
6,"Cc1csc(N2CCN([C@H](C)c3ccc4c(c3)OCO4)CC2)n1 (single isomer, unassigned) [Example 15, (R)-2-(4-(1-(benzordiri,31dioxol-5-yl)ethyl)piperazin-1-yl)-4-methylthiazole or (S)-2-(4-(1-(benzordiri,31 dioxol-5-yl)ethyl)piperazin-1-yl)-4-methylthiazole]",5e-08 to 2e-07 M
7,"CCNC(=O)c1cnc(N2CCN([C@@H](C)c3ccc4c(c3)OCO4)CC2)s1 (single isomer, unassigned) [Example 60]",5e-08 to 2e-07 M
8,"CCNC(=O)c1cnc(N2CCN([C@@H](C)c3ccc4c(c3)OCO4)CC2)s1 (single isomer, unassigned) [Example 59]",1e-06 to 1e-05 M
9,"C[C@@H](c1ccc2c(c1)OCCO2)N1CCN(c2ncc(C(=O)N3CCN(C)CC3)s2)CC1 (single isomer, unassigned) [Example 74]",1e-06 to 1e-05 M
10,"C[C@@H](c1ccc2c(c1)OCCO2)N1CCN(c2ncc(C(=O)N(C)C)s2)CC1 (single isomer, unassigned) [Example 64]",< 5e-08 M
11,"C[C@H](c1ccc2nccnc2c1)N1CCN(c2ncc(C(F)(F)F)cn2)CC1 (single isomer, unassigned) [Example 104, (S)-6-(1-(4-(5-(trifluoromethyl)pyrimidin-2-yl)piperazin-1-yl)ethyl)quinoxaline or (R)-6-(1-(4-(5-(trifluoromethyl)pyrimidin-2-yl)piperazin-1-yl)ethyl)quinoxaline]",5e-08 to 2e-07 M
12,"CCNC(=O)c1cnc(N2CCN([C@@H](C)c3ccc4c(c3)OCCO4)CC2)s1 (single isomer, unassigned) [Example 62, (S)-2-(4-(1-(2,3-dihydrobenzorbiri,41dioxin-6-yl)ethyl)piperazin-1-yl)-N-ethylthiazole-5-carboxamide or (R)-2-(4-(1-(2,3-dihydrobenzorblH,41dioxin-6-yl)ethyl)piperazin-1-yl)-N-ethylthiazole-5-carboxamide]",5e-08 to 2e-07 M
13,"CNC(=O)c1cnc(N2CCN([C@@H](C)c3ccc4c(c3)OCO4)CC2)s1 (single isomer, unassigned) [Example 66]",< 5e-08 M

# Same assay, conditions: OGA enzyme inhibition assay; activity range classes; read-out: OGA IC50
row,Compound,IC50
1,"CNC(=O)c1csc(N2CCN([C@@H](C)c3ccc4c(c3)OCCO4)CC2)n1 (single isomer, unassigned) [Example 57, (R)-2-(4-(1-(2,3-dihydrobenzorbin,41dioxin-6-yl)ethyl)piperazin-1-yl)-N-methylthiazole-4-carboxamide or (S)-2-(4-(1-(2,3-dihydrobenzorbiri,41dioxin-6-yl)ethyl)piperazin-1-yl)-N-methylthiazole-4-carboxamide]",< 5e-08 M
2,"C[C@@H](c1ccc2c(c1)OCCO2)N1CCN(c2ncccn2)CC1 (single isomer, unassigned) [Example 34, (R)-2-(4-(1-(2,3-Dihydrobenzorbiri,41dioxin-6-yl)ethyl)piperazin-1-yl)pyrimidine or (S)-2-(4-(1-(2,3-Dihydrobenzorbiri^1dioxin-6-yl)ethyl)piperazin-1-yl)pyrimidine]",< 5e-08 M
3,"CNC(=O)c1csc(N2CCN([C@@H](C)c3ccc4c(c3)OCO4)CC2)n1 (single isomer, unassigned) [Example 56, (/?)-2-(4-(1-(Benzordiri,31dioxol-5-yl)ethyl)piperazin-1-yl)-N-methylthiazole^4-carboxamide or ^S)-2-(4-(1-(benzordiri,31dioxol-5-yl)ethyl)piperazin-1-yl)-N-methylthiazole^4-carboxamide]",< 5e-08 M
4,"C[C@@H](c1ccc2c(c1)OCCO2)N1CCN(c2ncc(C(=O)N(C)CCN(C)C)s2)CC1 (single isomer, unassigned) [Example 71, (R)-2-(4-(1-(2,3-Dihydrobenzorb1H,41dioxin-6-yl)ethyl)piperazin-1-yl)-N-(2-(dimethylamino)ethyl)-N-methylthiazole-5-carboxamide or (S)-2-(4-(1-(2,3-dihydrobenzorbiri^1dioxin-6-yl)ethyl)piperazin-1-yl)-N-(2-(dimethylamino)ethyl)-N-methylthiazole-5-carboxamide]",< 5e-08 M
5,"CC(c1ccc2c(c1)OCO2)N1CCN(c2nc(CN)cs2)CC1 (stereo not drawn) [Example 84, (2-(4-(1-(benzordin,31 dioxol-5-yl)ethyl)piperazin-1-yl)thiazol-4-yl)methanamine]",5e-08 to 2e-07 M
6,"C[C@@H](c1ccc2c(c1)OCCO2)N1CCN(c2ncc(C(=O)N3CCC(O)CC3)s2)CC1 (single isomer, unassigned) [Example 81, (/?)-(2-(4-(1-(2,3-Dihydrobenzorbin,41dioxin-6-yl)ethyl)piperazin-1-yl)thiazol-5-yl)(4-hydroxypiperidin-1-yl)methanone or (S)-(2-(4-(1-(2,3-Dihydrobenzorbin,41dioxin-6-yl)ethyl)piperazin-1-yl)thiazol-5-yl)(4-hydroxypiperidin-1-yl)methanone]",< 5e-08 M

# Results, then the molecule that gave them:
row,IC50,Compound
1,< 5e-08 M,"CC(=O)NCc1csc(N2CCN(C(C)c3ccc4c(c3)OCO4)CC2)n1 (stereo not drawn) [Example 85, N-((2-(4-(1-(benzordiri,31dioxol-5-yl)ethyl)piperazin-1-yl)thiazol-4-yl)methyl)acetamide]"
2,< 5e-08 M,"C[C@@H](c1ccc2c(c1)OCO2)N1CCN(c2nc3c(s2)CN(C)CC3)CC1 [Example 194, (S)-2-(4-(1-(benzordiri,31dioxol-5-yl)ethyl)piperazin-1-yl)-5-methyl-4,5,6,7-tetrahydrothiazoloi5,4-c1pyridine]"
3,< 5e-08 M,"C[C@H](O)c1cnc(N2CCN([C@@H](C)c3ccc4c(c3)OCO4)CC2)nc1 (single isomer, unassigned) [Example 198]"
